These results are taken from ChEMBL document CHEMBL3871290, “3-Cyano-6-(5-methyl-3-pyrazoloamino) pyridines (Part 2): A dual inhibitor of Aurora kinase and tubulin polymerization” (Bioorg Med Chem Lett, 2016).

Active and inactive are the calls of the source. The calls are words filed in the database; no cut-off is given here.

Series [1] concerns Cc1ccc(OCCNc2nc(Nc3cc(C)[nH]n3)cc(C)c2C#N)cn1. Conditions: Homo sapiens.
Description: Activity at YES (unknown origin)
The test system of series [2] is HCT-116. Description: Antitumor activity against human HCT116 cells xenografted subcutaneously in mouse assessed as tumor growth inhibition at 30 mg/kg, po qd after 14 days. The series is classed as functional. In general terms: A xenograft is tissue or cells of one species grown in another, often human tumour cells in immunodeficient mice.
The test system of series [3] is HCT-116. In words: Antitumor activity against human HCT116 cells xenografted subcutaneously in mouse assessed as tumor growth inhibition at 100 mg/kg, po qd after 14 days. The series is classed as functional, organism-based.
The species named for another series is Sus scrofa. In words: Inhibition of pig brain tubulin polymerization at 10 uM in presence of GTP relative to control.
For a further series, the species on record is Homo sapiens. In words: Inhibition of Aurora kinase (unknown origin) assessed as reduction in histone H3 phosphorylation at Ser10 residue.
The test system of series [4] is Cc1ccc(OCCNc2nc(Nc3cc(C)[nH]n3)cc(C)c2C#N)cn1. The settings on record: Homo sapiens. The source holds these as a separate data set.
Description: Activity at cSRC (unknown origin)

Sequence of Tyrosine-protein kinase Yes (Homo sapiens), P07947 (P07947 whole entry): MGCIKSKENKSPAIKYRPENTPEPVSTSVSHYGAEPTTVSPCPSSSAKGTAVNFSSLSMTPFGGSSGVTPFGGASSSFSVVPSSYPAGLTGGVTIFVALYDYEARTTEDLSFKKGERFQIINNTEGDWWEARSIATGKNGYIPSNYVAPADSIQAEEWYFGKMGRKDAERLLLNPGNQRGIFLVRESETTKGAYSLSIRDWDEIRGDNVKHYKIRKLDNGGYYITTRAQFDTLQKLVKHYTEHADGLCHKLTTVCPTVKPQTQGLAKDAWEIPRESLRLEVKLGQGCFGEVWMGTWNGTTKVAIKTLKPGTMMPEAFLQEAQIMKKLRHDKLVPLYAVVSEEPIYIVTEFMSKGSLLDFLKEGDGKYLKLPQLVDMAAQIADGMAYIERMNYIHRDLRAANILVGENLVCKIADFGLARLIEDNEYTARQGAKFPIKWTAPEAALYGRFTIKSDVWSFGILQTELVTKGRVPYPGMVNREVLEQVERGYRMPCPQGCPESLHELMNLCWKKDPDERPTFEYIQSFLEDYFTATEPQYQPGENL

With “Tyrosine-protein kinase Yes (Homo sapiens), P07947”, the Km in series [1] worked out at 45 µM.

With `Cc1cc(Nc2cc(N3CCN(C)CC3)nc(Sc3ccc(NC(=O)C4CC4)cc3)n2)n[nH]1`, the figures for the TGI in the series with HCT-116 [2] and in the series with HCT-116 [3] were 60% and 68%, respectively.

As to `Cc1ccc(OCCNc2nc(Nc3cc(C)[nH]n3)cc(C)c2C#N)cn1`, the inhibition in the series filed under Sus scrofa came to 63%. In addition, the inhibition result in the series listed under Homo sapiens is “Active”.

As for “Proto-oncogene tyrosine-protein kinase Src (Homo sapiens) (from UniProt P12931)”, the Km in series [4] amounted to 200 µM.

A word on the Km: it is the substrate concentration at which the rate is half of its maximum. As a reminder, the TGI is how far tumour growth fell short of that in controls. One may read the inhibition as the share of the control response that was lost under treatment.
